Results taken from US5258406A, “Sulfonimidamides” (priority 1992, dated 1993).
Read-outs that look alike come from different tables or passages of the source.

Key:
Assay type in all cases: in vivo
colon carcinoma26 = details: IP, DX 10
Description: (§1) The compounds were tested in C3H mice bearing a 6C3HED lymphosarcoma, also known as the Gardner lymphosarcoma (GLS), and in a variety of human tumor xenografts in CD1 nu/nu mice, including CX-1, LX-1, HXGC3, and VRC5. The 6C3HED lymphosarcoma was obtained from the Division of Cancer Treatment, National […] Institute, Tumor Bank, maintained at E. G. and G. Mason Research (Worcester, Mass.). The CX-1 human colon carcinoma and the LX-1 human lung carcinoma xenografts were obtained from the National Cancer Institute. The HXGC3 and VRC5 human colon xenografts were obtained from Dr. P. J. Houghton, St. Jude Children's Hospital in Memphis (see Br. J. Cancer, 37, 213 (1978)). First passage tumor was stored in liquid nitrogen using standard techniques. The transplanted tumor was reestablished from the Tumor Bank every six months or as needed. The tumor was maintained by serial passage twice weekly in C3H mice.
(§2) In the procedure the tumor was removed from passage animals and minced into 1- to 3-mm square fragments using sterile techniques. Tumor pieces were checked for sterility using both Antibiotic Medium 1 and Brain Heart Infusion (Difco, Detroit, Mich.). Recipient mice were shaved and tumor pieces were implanted subcutaneously in the auxiliary region by trocar. Drug therapy on the appropriate schedule was initiated on the day after tumor implant for 6C3HED and after a seven (7) day delay for xenografts (or other delay as noted in Table 2). The compound being tested was mixed with 2.5% Emulphor EL620 from GAF Corporation (1:40 dilution in saline). Food and water were provided ad libitium. The drug was administered orally in 0.5 ml of 2.5% Emulphor (unless otherwise indicated). The tumor was measured the day after treatment ended with two dimensional measurements (width and length) of the tumor taken using automated digital calipers interfaced to a microcomputer. Approximate weight for the tumor was calculated using the following formula [Worzalla, J. F., et al., Invest. New Drugs, 8, 241 (1990], (tumor weight in mg)=(width in mm)^2 ×(length in mm)/2.
(§3) At least one control group of an equal number of mice was treated with the same volume of 2.5% Emulphor only. The percent inhibition was determined by subtracting the ratio of the mean tumor size of the test group relative to the control group from one and multiplying the result times 100.
(§4) The results of several experiments in mice bearing a 6C3HED lymphosarcoma (or other tumor where indicated) when the indicated compounds were administered are provided in Table 2. In Table 2, column 1 gives the Example number of the compound used, column 2 lists the dose level in mg/kg, column 3 provides the percent inhibition of tumor growth, column 4 gives the number of mice which died relative to the total number of animals in the group, column 5 gives the method of administration of the compound, and column 6 gives the dosage schedule. The protocol used with other tumors was the same as with the 6C3HED lymphosarcoma.
(i) Tumor type colon carcinoma26

M5 Ovarian Carcinoma = details: IP, DX 10, from day 5 after implant
Description: as §1, §2, §3, §4
(n) Tumor type M5 Ovarian Carcinoma

6C3HED lymphosarcoma = assay: animal or person
Lewis Lung Carcinoma = assay: Inhibition of Lewis Lung Carcinoma growth in mice; details: IP, DX 10
Description: as §1, §2, §3, §4
(m) Tumor type Lewis Lung Carcinoma

CA755 adenocarcinoma = details: IP, DX 10
Description: as §1, §2, §3, §4
(h) Tumor type CA755 adenocarcinoma

C3H mammary adenocarcin = details: IP, DX 10
Description: as §1, §2, §3, §4
(g) Tumor type C3H mammary adenocarcin

ELC2 = assay: Inhibition of ELC2 tumor growth in mice; details: IP, DX 10
Description: as §1, §2, §3, §4

Cc1ccc(S(=N)(=O)NC(=O)Nc2ccc(Cl)cc2)cc1C (centres unmarked) [Example 36, N-[[(4-chlorophenyl)amino]carbonyl]-3,4-dimethylbenzenesulfonimidamide]
% inhibition of tumor growth (colon carcinoma26; 3.75 mg/kg): 5% | Tox/Tot (mice which died / total) (colon carcinoma26; 3.75 mg/kg): 0/10 | % inhibition of tumor growth (colon carcinoma26; 7.5 mg/kg): 14% | Tox/Tot (mice which died / total) (colon carcinoma26; 7.5 mg/kg): 0/10 | % inhibition of tumor growth (colon carcinoma26; 15 mg/kg): 6% | Tox/Tot (mice which died / total) (colon carcinoma26; 15 mg/kg): 0/10 | % inhibition of tumor growth (colon carcinoma26; 30 mg/kg): 26% | Tox/Tot (mice which died / total) (colon carcinoma26; 30 mg/kg): 0/10 | % inhibition of tumor growth (M5 Ovarian Carcinoma; 3.75 mg/kg): 10% | Tox/Tot (mice which died / total) (M5 Ovarian Carcinoma; 3.75 mg/kg): 0/10 | % inhibition of tumor growth (M5 Ovarian Carcinoma; 7.5 mg/kg): 19% | Tox/Tot (mice which died / total) (M5 Ovarian Carcinoma; 7.5 mg/kg): 0/10 | % inhibition of tumor growth (M5 Ovarian Carcinoma; 15 mg/kg): 47% | Tox/Tot (mice which died / total) (M5 Ovarian Carcinoma; 15 mg/kg): 0/10 | % inhibition of tumor growth (M5 Ovarian Carcinoma; 30 mg/kg): 38% | Tox/Tot (mice which died / total) (M5 Ovarian Carcinoma; 30 mg/kg): 1/10 | Tox/Tot (mice which died / total) (6C3HED lymphosarcoma; IP, 0.25 mg/kg, BIDX 8): 0/10 | Tox/Tot (mice which died / total) (6C3HED lymphosarcoma; IP, 0.5 mg/kg, BIDX 8): 0/10 | Tox/Tot (mice which died / total) (6C3HED lymphosarcoma; IP, 1 mg/kg, BIDX 8): 0/10 | Tox/Tot (mice which died / total) (6C3HED lymphosarcoma; IP, 2 mg/kg, BIDX 8): 0/10 | Tox/Tot (mice which died / total) (6C3HED lymphosarcoma; IP, 3.125 mg/kg, DX 8): 0/10 | Tox/Tot (mice which died / total) (6C3HED lymphosarcoma; IP, 4 mg/kg, BIDX 8): 0/10 | Tox/Tot (mice which died / total) (6C3HED lymphosarcoma; IP, 6.25 mg/kg, DX 8): 0/10 | Tox/Tot (mice which died / total) (6C3HED lymphosarcoma; IP, 12.5 mg/kg, DX 8): 1/10 | Tox/Tot (mice which died / total) (6C3HED lymphosarcoma; IP, 12.5 mg/kg, Days 1, 3, 5, 7): 0/10 | Tox/Tot (mice which died / total) (6C3HED lymphosarcoma; IP, 25 mg/kg, DX 8): 2/10 | Tox/Tot (mice which died / total) (6C3HED lymphosarcoma; IP, 25 mg/kg, Days 1, 3, 5, 7): 0/10 | Tox/Tot (mice which died / total) (6C3HED lymphosarcoma; IP, 50 mg/kg, DX 8): 6/10 | Tox/Tot (mice which died / total) (6C3HED lymphosarcoma; IP, 50 mg/kg, Days 1, 3, 5, 7): 0/10 | Tox/Tot (mice which died / total) (6C3HED lymphosarcoma; IP, 100 mg/kg, Days 1, 3, 5, 7): 3/10 | inhibition in vivo at 0.25 mg/kg (6C3HED lymphosarcoma; Mus musculus, 6C3HED, ip, read-out: % inhibition of tumor growth, IP, 0.25 mg/kg, BIDX 8): 16% | inhibition in vivo at 0.5 mg/kg (6C3HED lymphosarcoma; Mus musculus, 6C3HED, ip, read-out: % inhibition of tumor growth, IP, 0.5 mg/kg, BIDX 8): 29% | inhibition in vivo at 1 mg/kg (6C3HED lymphosarcoma; Mus musculus, 6C3HED, ip, read-out: % inhibition of tumor growth, IP, 1 mg/kg, BIDX 8): 43% | inhibition in vivo at 2 mg/kg (6C3HED lymphosarcoma; Mus musculus, 6C3HED, ip, read-out: % inhibition of tumor growth, IP, 2 mg/kg, BIDX 8): 75% | inhibition in vivo at 3.125 mg/kg (6C3HED lymphosarcoma; Mus musculus, 6C3HED, ip, read-out: % inhibition of tumor growth, IP, 3.125 mg/kg, DX 8): 74% | inhibition in vivo at 4 mg/kg (6C3HED lymphosarcoma; Mus musculus, 6C3HED, ip, read-out: % inhibition of tumor growth, IP, 4 mg/kg, BIDX 8): 97% | inhibition in vivo at 6.25 mg/kg (6C3HED lymphosarcoma; Mus musculus, 6C3HED, ip, read-out: % inhibition of tumor growth, IP, 6.25 mg/kg, DX 8): 93% | inhibition in vivo at 12.5 mg/kg (6C3HED lymphosarcoma; Mus musculus, 6C3HED, ip, read-out: % inhibition of tumor growth, IP, 12.5 mg/kg, DX 8): 98% | inhibition in vivo at 12.5 mg/kg (6C3HED lymphosarcoma; Mus musculus, 6C3HED, ip, read-out: % inhibition of tumor growth, IP, 12.5 mg/kg, Days 1, 3, 5, 7): 88% | inhibition in vivo at 25 mg/kg (6C3HED lymphosarcoma; Mus musculus, 6C3HED, ip, read-out: % inhibition of tumor growth, IP, 25 mg/kg, DX 8): 100% | inhibition in vivo at 25 mg/kg (6C3HED lymphosarcoma; Mus musculus, 6C3HED, ip, read-out: % inhibition of tumor growth, IP, 25 mg/kg, Days 1, 3, 5, 7): 99% | inhibition in vivo at 50 mg/kg (6C3HED lymphosarcoma; Mus musculus, 6C3HED, ip, read-out: % inhibition of tumor growth, IP, 50 mg/kg, DX 8): 100% | inhibition in vivo at 50 mg/kg (6C3HED lymphosarcoma; Mus musculus, 6C3HED, ip, read-out: % inhibition of tumor growth, IP, 50 mg/kg, Days 1, 3, 5, 7): 99% | inhibition in vivo at 100 mg/kg (6C3HED lymphosarcoma; Mus musculus, 6C3HED, ip, read-out: % inhibition of tumor growth, IP, 100 mg/kg, Days 1, 3, 5, 7): 100% | inhibition in vivo at 6.25 mg/kg (6C3HED lymphosarcoma; Mus musculus, 6C3HED, po, read-out: % inhibition of tumor growth, oral, 6.25 mg/kg, BIDX 8): 100% | inhibition in vivo at 12.5 mg/kg (6C3HED lymphosarcoma; Mus musculus, 6C3HED, po, read-out: % inhibition of tumor growth, oral, 12.5 mg/kg, BIDX 8): 100% | inhibition in vivo at 25 mg/kg (6C3HED lymphosarcoma; Mus musculus, 6C3HED, po, read-out: % inhibition of tumor growth, oral, 25 mg/kg, BIDX 8): 100% | inhibition in vivo at 50 mg/kg (6C3HED lymphosarcoma; Mus musculus, 6C3HED, po, read-out: % inhibition of tumor growth, oral, 50 mg/kg, BIDX 8): 100% | inhibition in vivo at 150 mg/kg (6C3HED lymphosarcoma; Mus musculus, 6C3HED, po, read-out: % inhibition of tumor growth, oral, 150 mg/kg, BIDX 8): 99% | Tox/Tot (mice which died / total) (6C3HED lymphosarcoma; oral, 6.25 mg/kg, BIDX 8): 2/8 | Tox/Tot (mice which died / total) (6C3HED lymphosarcoma; oral, 12.5 mg/kg, BIDX 8): 5/8 | Tox/Tot (mice which died / total) (6C3HED lymphosarcoma; oral, 25 mg/kg, BIDX 8): 2/8 | Tox/Tot (mice which died / total) (6C3HED lymphosarcoma; oral, 50 mg/kg, BIDX 8): 7/8 | % inhibition of tumor growth (6C3HED lymphosarcoma; oral, 100 mg/kg, BIDX 8): TOX | Tox/Tot (mice which died / total) (6C3HED lymphosarcoma; oral, 100 mg/kg, BIDX 8): 8/8 | Tox/Tot (mice which died / total) (6C3HED lymphosarcoma; oral, 150 mg/kg, BIDX 8): 6/10 | % inhibition of tumor growth (6C3HED lymphosarcoma; oral, 300 mg/kg, BIDX 8): TOX | Tox/Tot (mice which died / total) (6C3HED lymphosarcoma; oral, 300 mg/kg, BIDX 8): 10/10 | % inhibition of tumor growth (Lewis Lung Carcinoma; 7.5 mg/kg): 6% | Tox/Tot (mice which died / total) (Lewis Lung Carcinoma; 7.5 mg/kg): 0/10 | % inhibition of tumor growth (Lewis Lung Carcinoma; 15 mg/kg): 32% | Tox/Tot (mice which died / total) (Lewis Lung Carcinoma; 15 mg/kg): 0/10 | % inhibition of tumor growth (Lewis Lung Carcinoma; 30 mg/kg): 34% | Tox/Tot (mice which died / total) (Lewis Lung Carcinoma; 30 mg/kg): 0/10 | % inhibition of tumor growth (CA755 adenocarcinoma; 3.75 mg/kg): 26% | Tox/Tot (mice which died / total) (CA755 adenocarcinoma; 3.75 mg/kg): 0/10 | % inhibition of tumor growth (CA755 adenocarcinoma; 7.5 mg/kg): 1% | Tox/Tot (mice which died / total) (CA755 adenocarcinoma; 7.5 mg/kg): 0/10 | % inhibition of tumor growth (CA755 adenocarcinoma; 15 mg/kg): 42% | Tox/Tot (mice which died / total) (CA755 adenocarcinoma; 15 mg/kg): 0/10 | % inhibition of tumor growth (CA755 adenocarcinoma; 30 mg/kg): 72% | Tox/Tot (mice which died / total) (CA755 adenocarcinoma; 30 mg/kg): 0/10 | % inhibition of tumor growth (C3H mammary adenocarcin; 3.75 mg/kg): 38% | Tox/Tot (mice which died / total) (C3H mammary adenocarcin; 3.75 mg/kg): 1/10 | % inhibition of tumor growth (C3H mammary adenocarcin; 7.5 mg/kg): 69% | Tox/Tot (mice which died / total) (C3H mammary adenocarcin; 7.5 mg/kg): 0/10 | % inhibition of tumor growth (C3H mammary adenocarcin; 15 mg/kg): 74% | Tox/Tot (mice which died / total) (C3H mammary adenocarcin; 15 mg/kg): 6/10 | % inhibition of tumor growth (C3H mammary adenocarcin; 30 mg/kg): TOX | Tox/Tot (mice which died / total) (C3H mammary adenocarcin; 30 mg/kg): 10/10 | % inhibition of tumor growth (ELC2; 7.5 mg/kg): 0% | Tox/Tot (mice which died / total) (ELC2; 7.5 mg/kg): 0/10 | % inhibition of tumor growth (ELC2; 15 mg/kg): 3% | Tox/Tot (mice which died / total) (ELC2; 15 mg/kg): 0/10 | % inhibition of tumor growth (ELC2; 30 mg/kg): TOX | Tox/Tot (mice which died / total) (ELC2; 30 mg/kg): 10/10
